13 molecules from BindingDB's records for doi:10.7270/Q2Q81BH4 (Nmmlsc, 2009) can be followed below.

By EC50 is commonly meant the concentration at which the effect is half-maximal. Read a low EC50 as a more potent agent.

In the test the target is T1, Mitogen-activated protein kinase kinase kinase 3 (Homo sapiens, UniProt Q99759).
T1 sequence (Q99759 whole entry): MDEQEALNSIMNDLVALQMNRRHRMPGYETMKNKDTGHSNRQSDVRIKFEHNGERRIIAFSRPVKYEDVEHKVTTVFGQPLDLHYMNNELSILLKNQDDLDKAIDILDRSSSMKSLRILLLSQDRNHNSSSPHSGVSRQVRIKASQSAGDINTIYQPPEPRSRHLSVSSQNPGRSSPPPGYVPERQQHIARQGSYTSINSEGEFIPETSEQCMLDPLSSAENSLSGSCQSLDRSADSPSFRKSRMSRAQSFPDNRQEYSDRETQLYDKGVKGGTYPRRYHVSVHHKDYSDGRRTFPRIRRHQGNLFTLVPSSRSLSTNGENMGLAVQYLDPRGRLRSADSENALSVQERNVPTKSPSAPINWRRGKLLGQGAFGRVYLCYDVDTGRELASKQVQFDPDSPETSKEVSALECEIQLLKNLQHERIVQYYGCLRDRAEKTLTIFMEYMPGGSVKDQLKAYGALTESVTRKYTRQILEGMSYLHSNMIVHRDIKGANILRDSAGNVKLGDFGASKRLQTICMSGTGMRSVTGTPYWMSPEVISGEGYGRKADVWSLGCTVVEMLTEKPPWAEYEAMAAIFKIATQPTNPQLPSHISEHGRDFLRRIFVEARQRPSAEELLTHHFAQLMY
Description: MEKK3–MEK5 PB1 domain interaction inhibitors – multiplex assay, wild-type MEKK3, SAR follow-up (AID 2145).

Each structure is given as a SMILES string.

The molecule `c1ccc(-c2nnc3sc(-c4ccc[nH]4)nn23)nc1` came in with an EC50 greater than 30 µM.

In turn, `c1ccc(-c2nnc3sc(C4CCCCCC4)nn23)nc1` had an EC50 greater than 30 µM.

For `COc1cc([N+](=O)[O-])ccc1-c1nn2c(-c3ccccn3)nnc2s1`, the EC50 is greater than 30 µM.

As to `COc1cccc(-c2nn3c(-c4ccccn4)nnc3s2)c1`, the EC50 is greater than 30 µM.

The molecule `c1csc(Cc2nn3c(-c4ccncc4)nnc3s2)c1` registered an EC50 greater than 30 µM.

For `COc1cc([N+](=O)[O-])ccc1-c1nn2c(-c3ccco3)nnc2s1` [3-(2-furanyl)-6-(2-methoxy-4-nitrophenyl)-[1,2,4]triazolo[3,4-b][1,3,4]thiadiazole], the EC50 was greater than 30 µM.

`COc1ccc(-c2nn3c(-c4ccccn4)nnc3s2)cc1OC` [6-(3,4-dimethoxyphenyl)-3-(2-pyridinyl)-[1,2,4]triazolo[3,4-b][1,3,4]thiadiazole] displayed an EC50 greater than 30 µM.

Regarding `CCOc1cccc(-c2nn3c(-c4ccco4)nnc3s2)c1` [6-(3-ethoxyphenyl)-3-(2-furanyl)-[1,2,4]triazolo[3,4-b][1,3,4]thiadiazole], the EC50 was greater than 30 µM.

`CCOc1cccc(-c2nn3c(-c4cccs4)nnc3s2)c1` [6-(3-ethoxyphenyl)-3-thiophen-2-yl-[1,2,4]triazolo[3,4-b][1,3,4]thiadiazole]: the midpoint of the response (inactive by the depositor's call), the EC50, lay at 1.1 µM.

As to `c1coc(-c2nnc3sc(C4CCCCCC4)nn23)c1` [6-cycloheptyl-3-(2-furanyl)-[1,2,4]triazolo[3,4-b][1,3,4]thiadiazole], the EC50 was greater than 30 µM.

The molecule `c1coc(-c2nnc3sc(C4CCCCC4)nn23)c1` [6-cyclohexyl-3-(2-furanyl)-[1,2,4]triazolo[3,4-b][1,3,4]thiadiazole] gave a half-maximal effective concentration (EC50) greater than 30 µM.

`c1c[nH]c(-c2nn3c(-c4ccco4)nnc3s2)c1` [(6Z)-3-(2-furanyl)-6-(2-pyrrolylidene)-5H-[1,2,4]triazolo[3,4-b][1,3,4]thiadiazole] registered an EC50 greater than 30 µM.

Molecule `c1ccc(-c2nnc3sc(C4CCCCC4)nn23)nc1` [VU0364704-1] came in with an EC50 greater than 30 µM.
